Source: patent US7112418B2, “Ion channel” (priority 1995, dated 2006)
Where two headings read alike, the source gives them in different places.

Key:
SNS sodium channel = SNS sodium channel (Rattus norvegicus, UniProt Q62968); assay type: cell-based
[1] = tested on: DRG sodium channel transcripts; assay: RT-PCR of DRG sodium channel transcripts in cultured DRG neurons treated with capsaicin; assay type: cell-based, rat; conditions: overnight 10 μM
Method: (§1) cDNA was synthesized with Superscript reverse transcriptase using oligo dT(12-18) primers and purified on Qiagen 5 tips. Polymerase chain reaction (PCR) was used to amplify cDNA (35 cycles, 94° C., 1 min; 55° C., 1 min; and 72° C., 1 min), and products separated on agarose gels before staining with ethidium bromide. L-27 primers (Ninkina et al. (1983) Nucleic Acids Res. 21, 3175-3182) were added to the PCR reaction 5 cycles after the start of the reaction with the DRG sodium channel specific primers which comprised

[2] = tested on: DRG sodium channel transcripts; assay: RT-PCR of DRG sodium channel transcripts in DRG of neonatal animals treated with capsaicin; assay type: in vivo, rat; conditions: 50 mg/kg on 2 consecutive days, DRG isolation 5 days later
Method: as §1

[3] = tested on: DRG sodium channel transcript; assay: Northern blot of adult DRG RNA from rats treated with capsaicin as neonates; assay type: in vivo, rat; conditions: neonatal rats treated, total adult DRG RNA
Method: Random primed ^32P-labeled DNA Pst-Acc 1 fragment probes (50 ng, specific activity 2×10^9 c.p.m. per μg DNA) from interdomain region 1 (nucleotide position 1,478-1,892) of the SNS sodium channel nucleic acid sequence were used to probe total RNA extracted from tissues.
Total RNA was separated on 1.2% agarose-formaldehyde gels, and capillary blotted onto Hibond-N filters (Amersham). The amounts of RNA on the blot were roughly equivalent, as judged by ethidium bromide staining of ribosomal RNA and by hybridization with the ubiquitously expressed L-27 ribosomal protein transcripts. Filters were prehybridized in 50% formamide, 5×SSC containing 0.5% sodium dodecyl sulfate, 5× Denhardts solution, 100 μg/ml boiled sonicated salmon sperm DNA (average size 300 bp), 10 μg/ml poly-U and 10 μg/ml poly-C at 45° C. for 6 h. After 36 hours hybridization in the same conditions using 10^7 c.p.m. per ml hybridization probe, the filters were briefly washed in 2×SSC at room temperature, then twice with 2×SSC with 0.5% SDS at 68° C. for 15 min, followed by a 20 min wash in 0.5% SDS, 0.2×SSC at 68° C. The filters were autoradiographed overnight or for 4 days on autoradiography film (Kodak X-omat).

[4] = target: mutated SNS sodium channel (SNS mutant) (Rattus norvegicus, UniProt Q62968, S356F); assay type: cell-based; conditions: read-out: IC50 (TTX sensitivity restored)
[5] = tested on: Rat brain iia sodium channel; conditions: read-out: IC50 (TTX Sensitivity); cited from earlier work
[6] = target: muscle type 1 sodium channel (Rattus norvegicus, UniProt P15390); conditions: read-out: IC50 (TTX Sensitivity); cited from earlier work

SNS sodium channel, sequence (Q62968 other isoform, or with tags, fused parts or gaps with the stated changes): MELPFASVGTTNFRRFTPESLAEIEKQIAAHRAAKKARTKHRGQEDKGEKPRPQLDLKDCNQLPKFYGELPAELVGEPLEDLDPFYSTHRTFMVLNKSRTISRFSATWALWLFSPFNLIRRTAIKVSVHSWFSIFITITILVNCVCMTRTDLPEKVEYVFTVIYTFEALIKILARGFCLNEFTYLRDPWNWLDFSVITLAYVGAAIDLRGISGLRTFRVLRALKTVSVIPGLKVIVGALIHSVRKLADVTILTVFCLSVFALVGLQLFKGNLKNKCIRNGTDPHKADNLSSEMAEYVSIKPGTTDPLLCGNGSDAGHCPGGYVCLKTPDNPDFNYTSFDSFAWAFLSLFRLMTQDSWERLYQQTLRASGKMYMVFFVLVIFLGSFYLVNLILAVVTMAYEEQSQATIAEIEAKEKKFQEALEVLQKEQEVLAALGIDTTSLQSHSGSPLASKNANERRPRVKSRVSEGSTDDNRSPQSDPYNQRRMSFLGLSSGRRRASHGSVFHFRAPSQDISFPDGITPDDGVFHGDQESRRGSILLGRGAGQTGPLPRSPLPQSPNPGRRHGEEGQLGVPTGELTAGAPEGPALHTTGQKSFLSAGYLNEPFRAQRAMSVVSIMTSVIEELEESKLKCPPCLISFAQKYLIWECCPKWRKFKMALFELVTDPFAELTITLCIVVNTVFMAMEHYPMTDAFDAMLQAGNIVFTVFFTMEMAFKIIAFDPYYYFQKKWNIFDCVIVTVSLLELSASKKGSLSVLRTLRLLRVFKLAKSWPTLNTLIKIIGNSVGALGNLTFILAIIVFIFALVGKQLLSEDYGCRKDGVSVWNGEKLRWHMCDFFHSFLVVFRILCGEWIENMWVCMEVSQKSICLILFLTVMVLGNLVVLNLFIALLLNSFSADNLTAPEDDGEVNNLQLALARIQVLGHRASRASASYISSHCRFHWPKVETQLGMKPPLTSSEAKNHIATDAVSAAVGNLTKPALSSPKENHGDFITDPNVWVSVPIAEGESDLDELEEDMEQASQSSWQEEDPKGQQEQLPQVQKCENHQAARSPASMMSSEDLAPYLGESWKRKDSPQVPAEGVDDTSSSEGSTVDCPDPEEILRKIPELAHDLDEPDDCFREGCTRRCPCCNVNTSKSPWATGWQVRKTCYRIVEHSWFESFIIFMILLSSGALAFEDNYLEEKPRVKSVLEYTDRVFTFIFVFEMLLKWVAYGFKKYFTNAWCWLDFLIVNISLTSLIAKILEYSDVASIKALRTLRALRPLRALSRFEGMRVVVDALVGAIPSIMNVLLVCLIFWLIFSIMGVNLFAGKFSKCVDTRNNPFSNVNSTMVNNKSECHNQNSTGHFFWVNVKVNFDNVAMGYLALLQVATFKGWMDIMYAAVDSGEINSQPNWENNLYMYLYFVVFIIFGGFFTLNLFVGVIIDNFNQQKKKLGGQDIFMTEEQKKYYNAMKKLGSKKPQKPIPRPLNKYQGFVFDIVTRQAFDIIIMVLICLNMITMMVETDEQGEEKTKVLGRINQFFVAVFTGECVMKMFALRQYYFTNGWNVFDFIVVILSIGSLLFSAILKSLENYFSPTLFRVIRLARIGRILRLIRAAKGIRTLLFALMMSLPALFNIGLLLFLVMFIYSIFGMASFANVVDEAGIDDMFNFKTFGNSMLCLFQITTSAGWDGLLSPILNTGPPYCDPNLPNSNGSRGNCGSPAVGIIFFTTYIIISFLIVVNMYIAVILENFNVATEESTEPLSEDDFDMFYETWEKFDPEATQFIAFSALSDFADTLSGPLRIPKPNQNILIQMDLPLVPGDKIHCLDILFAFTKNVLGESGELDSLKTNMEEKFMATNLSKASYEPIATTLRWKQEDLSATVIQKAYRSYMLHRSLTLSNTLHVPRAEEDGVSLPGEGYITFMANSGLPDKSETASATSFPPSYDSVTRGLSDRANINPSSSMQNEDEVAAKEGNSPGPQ
mutated SNS sodium channel (SNS mutant), sequence (Q62968 whole entry S356F, looked up): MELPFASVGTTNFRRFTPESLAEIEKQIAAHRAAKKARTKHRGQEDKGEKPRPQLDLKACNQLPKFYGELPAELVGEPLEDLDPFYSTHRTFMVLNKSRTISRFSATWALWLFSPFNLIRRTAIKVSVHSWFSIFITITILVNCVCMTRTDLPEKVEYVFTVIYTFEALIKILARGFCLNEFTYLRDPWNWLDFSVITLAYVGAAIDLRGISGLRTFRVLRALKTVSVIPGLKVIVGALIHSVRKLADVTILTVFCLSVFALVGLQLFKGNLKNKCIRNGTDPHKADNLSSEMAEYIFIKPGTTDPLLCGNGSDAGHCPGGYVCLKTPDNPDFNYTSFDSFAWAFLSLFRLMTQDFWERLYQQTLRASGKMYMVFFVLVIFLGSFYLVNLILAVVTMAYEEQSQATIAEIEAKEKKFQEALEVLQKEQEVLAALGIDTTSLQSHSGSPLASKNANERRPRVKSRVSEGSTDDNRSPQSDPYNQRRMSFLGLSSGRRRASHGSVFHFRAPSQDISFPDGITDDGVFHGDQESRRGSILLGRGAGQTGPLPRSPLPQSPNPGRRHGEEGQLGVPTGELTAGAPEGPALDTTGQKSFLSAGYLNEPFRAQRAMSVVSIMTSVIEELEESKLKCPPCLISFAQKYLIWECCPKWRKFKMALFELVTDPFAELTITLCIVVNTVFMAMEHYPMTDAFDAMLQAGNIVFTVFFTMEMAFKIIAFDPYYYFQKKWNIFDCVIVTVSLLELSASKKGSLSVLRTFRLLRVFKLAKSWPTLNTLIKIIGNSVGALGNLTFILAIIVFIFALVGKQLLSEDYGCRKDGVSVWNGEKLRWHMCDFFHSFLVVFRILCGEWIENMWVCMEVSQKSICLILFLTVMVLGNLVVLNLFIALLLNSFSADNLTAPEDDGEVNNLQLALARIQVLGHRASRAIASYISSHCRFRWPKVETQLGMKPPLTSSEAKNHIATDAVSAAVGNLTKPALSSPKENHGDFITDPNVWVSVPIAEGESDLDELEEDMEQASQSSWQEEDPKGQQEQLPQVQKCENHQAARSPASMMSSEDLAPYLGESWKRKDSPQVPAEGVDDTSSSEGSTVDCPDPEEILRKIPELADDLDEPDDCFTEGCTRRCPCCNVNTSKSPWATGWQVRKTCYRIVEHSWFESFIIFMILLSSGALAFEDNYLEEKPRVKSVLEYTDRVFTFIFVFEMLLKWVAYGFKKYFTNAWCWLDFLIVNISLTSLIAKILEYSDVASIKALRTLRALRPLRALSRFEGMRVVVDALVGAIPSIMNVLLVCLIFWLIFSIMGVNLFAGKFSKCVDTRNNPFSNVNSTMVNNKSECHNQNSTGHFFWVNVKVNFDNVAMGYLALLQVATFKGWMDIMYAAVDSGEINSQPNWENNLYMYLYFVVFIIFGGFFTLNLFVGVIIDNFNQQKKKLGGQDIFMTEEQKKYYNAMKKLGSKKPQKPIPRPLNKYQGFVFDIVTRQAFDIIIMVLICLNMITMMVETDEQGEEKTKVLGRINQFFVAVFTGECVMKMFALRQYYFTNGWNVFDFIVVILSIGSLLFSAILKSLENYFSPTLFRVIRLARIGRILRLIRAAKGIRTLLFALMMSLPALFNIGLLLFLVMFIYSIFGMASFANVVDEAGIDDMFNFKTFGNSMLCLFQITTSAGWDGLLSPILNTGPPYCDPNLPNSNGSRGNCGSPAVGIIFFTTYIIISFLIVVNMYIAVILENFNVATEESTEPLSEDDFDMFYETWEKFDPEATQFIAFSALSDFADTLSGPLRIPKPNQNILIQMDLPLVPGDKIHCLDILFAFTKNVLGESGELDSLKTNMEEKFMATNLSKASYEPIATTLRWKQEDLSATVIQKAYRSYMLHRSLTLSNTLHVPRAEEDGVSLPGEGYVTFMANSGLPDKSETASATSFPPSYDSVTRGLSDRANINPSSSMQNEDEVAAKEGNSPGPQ

O=C1NC(=O)C(c2ccccc2)(c2ccccc2)N1 [phenytoin]
effect on peak current (SNS sodium channel; 100 μM, depolarizing pulses from −60 mV to +10 mV, 1 every min): no effect

COc1cc(CNC(=O)CCCC/C=C/C(C)C)ccc1O [capsaicin]
DRG sodium channel signal (RT-PCR) compared with controls [1]: significant diminution
DRG sodium channel signal (RT-PCR) compared with controls [2]: significant diminution
DRG sodium channel northern blot signal [3]: substantially reduced

CCN(CC)CC(=O)Nc1c(C)cccc1C [lignocaine]
maximum block of peak current (SNS sodium channel): 41.7±5.4%

NC1=N[C@H](O)[C@H]2[C@H]3O[C@]4(O)O[C@@H]([C@@H](O)[C@@]2(N1)[C@@H]4O)[C@]3(O)CO [TTX, tetrodotoxin]
block of the channel (SNS sodium channel): only partially blocked
effect on peak Na+ current (SNS sodium channel): no effect
effect on the channel (SNS sodium channel): unaffected
reduction of peak Na+ current (SNS sodium channel): 19.1±8.3%
reversibility of effect on peak Na+ current (SNS sodium channel): quickly reversible upon washout
IC50 (SNS sodium channel; read-out: IC50 (TTX Sensitivity)): 60000 nM
IC50 (SNS sodium channel; read-out: IC50 (relative insensitivity to TTX)): > 1000 nM
IC50 (SNS sodium channel; read-out: estimated half-maximal inhibitory concentration (IC50)): 59600 ± 10100 nM
IC50 [4]: 2.5 nM
IC50 [5]: 18 nM
IC50 [6]: 40 nM
